Measurements: patent US7767659B2, “Synthesis of naturally occurring ecteinascidins and related compounds” (Pharma Mar, S.A., priority 2002, dated 2010)

Experiments:
[1] = tested on: PANC-1; experiment: Inhibition of cells growth by colorimetric assay (SRB); conditions: Homo sapiens, PANC-1, 48 h; for GI50: read-out: PANC-1 GI50; for CC50: read-out: PANC-1 LC50; for IC (TGI): read-out: PANC-1 TGI
How it was run: (§1)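 Colorimetric SRB read (490 nm) on triplicate wells after 48 h at 37 °C, 5% CO2. Dose range 10 to 10^−8 μg/ml; 5×10^3 cells/well pre-attached 18 h.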

[2] = tested on: HeLa; experiment: as above; conditions: Homo sapiens, HeLa, 48 h; for GI50: read-out: HELA GI50; for CC50: read-out: HELA LC50; for IC (TGI): read-out: HELA TGI
How it was run: as §1

[3] = tested on: SK-MEL-28; experiment: as above; conditions: Homo sapiens, SK-MEL-28, 48 h; for GI50: read-out: MEL-28 GI50; for CC50: read-out: MEL-28 LC50; for IC (TGI): read-out: MEL-28 TGI
How it was run: as §1

[4] = tested on: K-562; experiment: as above; conditions: Homo sapiens, K562, 48 h; for GI50: read-out: K562 GI50; for CC50: read-out: K562 LC50; for IC (TGI): read-out: K562 TGI
How it was run: as §1

[5] = tested on: DU-145; experiment: as above; conditions: Homo sapiens, DU-145, 48 h; for GI50: read-out: DU145 GI50; for CC50: read-out: DU145 LC50; for IC (TGI): read-out: DU145 TGI
How it was run: as §1

[6] = tested on: LNCaP; experiment: as above; conditions: Homo sapiens, LNCaP, 48 h; for GI50: read-out: LNCAP GI50; for CC50: read-out: LNCAP LC50; for IC (TGI): read-out: LNCAP TGI
How it was run: as §1

[7] = tested on: SK-BR-3; experiment: as above; conditions: Homo sapiens, SK-BR-3, 48 h; for GI50: read-out: SK-BR3 GI50; for CC50: read-out: SK-BR3 LC50; for IC (TGI): read-out: SK-BR3 TGI
How it was run: as §1

[8] = tested on: IGROV-ET; experiment: as above; conditions: Homo sapiens, 48 h; for GI50: read-out: IGROV-ET GI50; for CC50: read-out: IGROV-ET LC50; for IC (TGI): read-out: IGROV-ET TGI
How it was run: as §1

[9] = tested on: HeLa-APL; experiment: as above; conditions: Homo sapiens, 48 h; for GI50: read-out: HELA-APL GI50; for CC50: read-out: HELA-APL LC50; for IC (TGI): read-out: HELA-APL TGI
How it was run: as §1

[10] = tested on: LoVo-Dox; experiment: as above; conditions: Homo sapiens, 48 h; for GI50: read-out: LOVO-DOX GI50; for CC50: read-out: LOVO-DOX LC50; for IC (TGI): read-out: LOVO-DOX TGI
How it was run: as §1

[11] = tested on: IGROV-1; experiment: as above; conditions: Homo sapiens, IGROV-1, 48 h; for GI50: read-out: IGROV GI50; for CC50: read-out: IGROV LC50; for IC (TGI): read-out: IGROV TGI
How it was run: as §1

[12] = tested on: A-549; experiment: cells; conditions: Homo sapiens, A549, 48 h; for GI50: read-out: A549 GI50; for CC50: read-out: A549 LC50; for IC (TGI): read-out: A549 TGI
How it was run: as §1

[13] = tested on: HT-29; experiment: cells; conditions: Homo sapiens, HT-29, 48 h; for GI50: read-out: HT29 GI50; for CC50: read-out: HT29 LC50; for IC (TGI): read-out: HT29 TGI
How it was run: as §1

[14] = tested on: LoVo; experiment: cells; conditions: Homo sapiens, LoVo, 48 h; for GI50: read-out: LOVO GI50; for CC50: read-out: LOVO LC50; for IC (TGI): read-out: LOVO TGI
How it was run: as §1

Structure (SMILES): COc1ccc2[nH]c3c(c2c1)CCN[C@]31CS[C@@H]2c3c(OC(C)=O)c(C)c4c(c3[C@H](COC1=O)N1C2[C@@H]2N[C@@H](Cc3cc(C)c(OC)c(O)c32)[C@@H]1C#N)OCO4 (stereo partly drawn) [compound 60]
- GI50 [1]: 3.31 nM
- CC50 [1]: 12800 nM
- IC (TGI) [1]: 11.9 nM
- GI50 [2]: 1.03 nM
- CC50 [2]: 12.8 nM
- IC (TGI) [2]: 3.41 nM
- GI50 [3]: 1.91 nM
- CC50 [3]: 9.55 nM
- IC (TGI) [3]: 4.27 nM
- GI50 [4]: 0.809 nM
- CC50 [4]: 8570 nM
- IC (TGI) [4]: 13.2 nM
- GI50 [5]: 1.8 nM
- CC50 [5]: 7130 nM
- IC (TGI) [5]: 1360 nM
- GI50 [6]: 0.415 nM
- CC50 [6]: 5.03 nM
- IC (TGI) [6]: 1.42 nM
- GI50 [7]: 0.431 nM
- CC50 [7]: 42.2 nM
- IC (TGI) [7]: 1.22 nM
- GI50 [8]: 20.9 nM
- CC50 [8]: 2890 nM
- IC (TGI) [8]: 53.1 nM
- GI50 [9]: 1.37 nM
- CC50 [9]: 9.27 nM
- IC (TGI) [9]: 3.58 nM
- GI50 [10]: 163 nM
- CC50 [10]: 12800 nM
- IC (TGI) [10]: 757 nM
- GI50 [11]: 1.38 nM
- CC50 [11]: 11.8 nM
- IC (TGI) [11]: 4.03 nM
- GI50 [12]: 3.6 nM
- CC50 [12]: 76 nM
- IC (TGI) [12]: 13.1 nM
- GI50 [13]: 2.28 nM
- CC50 [13]: 12800 nM
- IC (TGI) [13]: 13.1 nM
- GI50 [14]: 3.27 nM
- CC50 [14]: 2900 nM
- IC (TGI) [14]: 8.23 nM

Structure (SMILES): COc1c(C)cc2c(c1O)[C@H]1N[C@@H](C2)[C@H](O)N2C1[C@@H]1SCC(=O)C(=O)OC[C@H]2c2c3c(c(C)c(OC(C)=O)c21)OCO3 (stereo partly drawn) [compound 43]
- GI50 [1]: 22.9 nM
- CC50 [1]: 2150 nM
- IC (TGI) [1]: 82.7 nM
- GI50 [2]: 9.39 nM
- CC50 [2]: 145 nM
- IC (TGI) [2]: 39.9 nM
- GI50 [3]: 9.09 nM
- CC50 [3]: 91 nM
- IC (TGI) [3]: 32.7 nM
- GI50 [4]: 3.11 nM
- CC50 [4]: 895 nM
- IC (TGI) [4]: 13.8 nM
- GI50 [5]: 13.6 nM
- CC50 [5]: 2920 nM
- IC (TGI) [5]: 67 nM
- GI50 [6]: 6.58 nM
- CC50 [6]: 88.7 nM
- IC (TGI) [6]: 20.2 nM
- GI50 [7]: 5.83 nM
- CC50 [7]: 164 nM
- IC (TGI) [7]: 24.2 nM
- GI50 [8]: 68.5 nM
- CC50 [8]: 5800 nM
- IC (TGI) [8]: 369 nM
- GI50 [9]: 24.1 nM
- CC50 [9]: 423 nM
- IC (TGI) [9]: 73.2 nM
- GI50 [10]: 423 nM
- CC50 [10]: 16700 nM
- IC (TGI) [10]: 1150 nM
- GI50 [11]: 10.6 nM
- CC50 [11]: 384 nM
- IC (TGI) [11]: 49.6 nM
- GI50 [12]: 26.1 nM
- CC50 [12]: 148 nM
- IC (TGI) [12]: 62.1 nM
- GI50 [13]: 24.2 nM
- CC50 [13]: 16700 nM
- IC (TGI) [13]: 190 nM
- GI50 [14]: 31.2 nM
- CC50 [14]: 16700 nM
- IC (TGI) [14]: 86.7 nM

Structure (SMILES): C=CCN1[C@@H]2c3c(cc(C)c(OC)c3O)C[C@H]1[C@H](O)N1C2[C@@H]2SC[C@]3(NCCc4cc(O)c(OC)cc43)C(=O)OC[C@H]1c1c3c(c(C)c(OC(C)=O)c12)OCO3 (stereo partly drawn) [compound 67]
- GI50 [1]: 27.4 nM
- CC50 [1]: 2780 nM
- IC (TGI) [1]: 92.7 nM
- GI50 [2]: 30.2 nM
- CC50 [2]: 395 nM
- IC (TGI) [2]: 67.4 nM
- GI50 [3]: 20.4 nM
- CC50 [3]: 100 nM
- IC (TGI) [3]: 45.3 nM
- GI50 [4]: 33.9 nM
- CC50 [4]: 2090 nM
- IC (TGI) [4]: 39.7 nM
- GI50 [5]: 35.9 nM
- CC50 [5]: 3500 nM
- IC (TGI) [5]: 75.4 nM
- GI50 [6]: 3 nM
- CC50 [6]: 37.4 nM
- IC (TGI) [6]: 9 nM
- GI50 [7]: 8.71 nM
- CC50 [7]: 284 nM
- IC (TGI) [7]: 37.4 nM
- GI50 [8]: 26.8 nM
- CC50 [8]: 2680 nM
- IC (TGI) [8]: 62.7 nM
- GI50 [9]: 29.7 nM
- CC50 [9]: 327 nM
- IC (TGI) [9]: 64.7 nM
- GI50 [10]: 368 nM
- CC50 [10]: 12700 nM
- IC (TGI) [10]: 975 nM
- GI50 [11]: 31.2 nM
- CC50 [11]: 685 nM
- IC (TGI) [11]: 78.6 nM
- GI50 [12]: 32.7 nM
- CC50 [12]: 797 nM
- IC (TGI) [12]: 68.7 nM
- GI50 [13]: 37.9 nM
- CC50 [13]: 11900 nM
- IC (TGI) [13]: 102 nM
- GI50 [14]: 28.6 nM
- CC50 [14]: 10600 nM
- IC (TGI) [14]: 73 nM
